Source: US11987588B2, “Modulators of the beta-3 adrenergic receptor useful for the treatment or prevention of heart failure and disorders related thereto” (Arena Pharmaceuticals, Inc., priority 2017, dated 2024)

Target: Beta-3 Adrenergic Receptor (Homo sapiens (Human), UniProt P13945)
Experiment: Homogeneous Time-Resolved Fluorescence (HTRF) cAMP antagonist assay, IC50 determination
Format: cell-based
Settings: CHO-K1 cells stably expressing recombinant receptor, isoproterenol at EC90
How it was run: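 In this functional readout, recombinant CHO-K1 cells received compound, then isoproterenol at its EC90. After 1 h at room temperature, cAMP levels were determined by HTRF using an on-plate standard curve, and IC50 values were fitted.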

Beta-3 Adrenergic Receptor, sequence (P13945 whole entry, species assumed): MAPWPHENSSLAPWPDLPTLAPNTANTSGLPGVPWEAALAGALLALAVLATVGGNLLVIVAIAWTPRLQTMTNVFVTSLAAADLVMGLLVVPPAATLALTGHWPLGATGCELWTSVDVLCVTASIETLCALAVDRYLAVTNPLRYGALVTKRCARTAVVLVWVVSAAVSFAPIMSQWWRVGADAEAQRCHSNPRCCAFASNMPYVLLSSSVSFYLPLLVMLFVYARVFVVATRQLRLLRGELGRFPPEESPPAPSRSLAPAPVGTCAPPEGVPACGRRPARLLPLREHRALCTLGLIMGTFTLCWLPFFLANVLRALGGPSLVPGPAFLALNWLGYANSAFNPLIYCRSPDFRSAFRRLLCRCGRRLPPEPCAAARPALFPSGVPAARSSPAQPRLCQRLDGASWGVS

IC50 [nM]	Structure (SMILES)
278	CNS(=O)(=O)c1cccc(OC[C@@H](O)CN[C@H]2COC3(CCN(S(=O)(=O)c4cnc5c(c4)CNCC5)CC3)C2)c1 [Compound 484, 3-((S)-2-hydroxy-3-((R)-8-(5,6,7,8-tetrahydro-1,6-naphthyridin-3-ylsulfonyl)-1-oxa-8-azaspiro[4.5]decan-3-ylamino)propoxy)-N-methylbenzenesulfonamide]
35.8	CNS(=O)(=O)c1cccc(OC[C@@H](O)CN[C@H]2COC3(CCN(S(=O)(=O)c4cnc5cccnc5c4)CC3)C2)c1 [Compound 485, 3-((S)-3-((R)-8-(1,5-naphthyridin-3-ylsulfonyl)-1-oxa-8-azaspiro[4.5]decan-3-ylamino)-2-hydroxypropoxy)-N-methylbenzenesulfonamide]
41.5	CNS(=O)(=O)c1cccc(OC[C@@H](O)CN[C@H]2COC3(CCN(S(=O)(=O)c4cnc5nc(C)[nH]c5c4)CC3)C2)c1 [Compound 486, 3-((S)-2-hydroxy-3-((R)-8-(2-methyl-1H-imidazo[4,5-b]pyridin-6-ylsulfonyl)-1-oxa-8-azaspiro[4.5]decan-3-ylamino)propoxy)-N-methylbenzenesulfonamide]
25.2	CNS(=O)(=O)c1cccc(OC[C@@H](O)CN[C@H]2COC3(CCN(S(=O)(=O)c4cnc5c(c4)N(C)CCCO5)CC3)C2)c1 [Compound 487, 3-((S)-2-hydroxy-3-((R)-8-(1-methyl-1,2,3,4-tetrahydropyrido[2,3-b][1,4]oxazepin-8-ylsulfonyl)-1-oxa-8-azaspiro[4.5]decan-3-ylamino)propoxy)-N-methylbenzenesulfonamide]
38.1	CNS(=O)(=O)c1cccc(OC[C@@H](O)CN[C@H]2COC3(CCN(S(=O)(=O)c4cnc5c(c4)COCC5)CC3)C2)c1 [Compound 488, 3-((S)-3-((R)-8-(7,8-dihydro-5H-pyrano[4,3-b]pyridin-3-ylsulfonyl)-1-oxa-8-azaspiro[4.5]decan-3-ylamino)-2-hydroxypropoxy)-N-methylbenzenesulfonamide]
37.3	CNS(=O)(=O)c1cccc(OC[C@@H](O)CN[C@H]2COC3(CCN(S(=O)(=O)c4cnc5[nH]ncc5c4)CC3)C2)c1 [Compound 490, 3-((S)-3-((R)-8-(1H-pyrazolo[3,4-b]pyridin-5-ylsulfonyl)-1-oxa-8-azaspiro[4.5]decan-3-ylamino)-2-hydroxypropoxy)-N-methylbenzenesulfonamide]
24.4	CNS(=O)(=O)c1cccc(OC[C@@H](O)CN[C@H]2COC3(CCN(S(=O)(=O)c4cnc5c(c4)CCC5)CC3)C2)c1 [Compound 491, 3-((S)-3-((R)-8-(6,7-dihydro-5H-cyclopenta[b]pyridin-3-ylsulfonyl)-1-oxa-8-azaspiro[4.5]decan-3-ylamino)-2-hydroxypropoxy)-N-methylbenzenesulfonamide]
10.6	CNS(=O)(=O)c1cccc(OC[C@@H](O)CN[C@H]2COC3(CCN(S(=O)(=O)c4cnc5[nH]cc(C#N)c5c4)CC3)C2)c1 [Compound 493, 3-((S)-3-((R)-8-(3-cyano-1H-pyrrolo[2,3-b]pyridin-5-ylsulfonyl)-1-oxa-8-azaspiro[4.5]decan-3-ylamino)-2-hydroxypropoxy)-N-methylbenzenesulfonamide]
50.6	CNS(=O)(=O)c1cccc(OC[C@@H](O)CN[C@H]2COC3(CCN(S(=O)(=O)c4cnc5nc[nH]c5c4)CC3)C2)c1 [Compound 495, 3-((S)-3-((R)-8-(1H-imidazo[4,5-b]pyridin-6-ylsulfonyl)-1-oxa-8-azaspiro[4.5]decan-3-ylamino)-2-hydroxypropoxy)-N-methylbenzenesulfonamide]
16.4	CNS(=O)(=O)c1cccc(OC[C@@H](O)CN[C@H]2COC3(CCN(S(=O)(=O)c4cnc5[nH]nc(C)c5c4)CC3)C2)c1 [Compound 497, 3-((S)-2-hydroxy-3-((R)-8-(3-methyl-1H-pyrazolo[3,4-b]pyridin-5-ylsulfonyl)-1-oxa-8-azaspiro[4.5]decan-3-ylamino)propoxy)-N-methylbenzenesulfonamide]
28.8	CNS(=O)(=O)c1cccc(OC[C@@H](O)CN[C@H]2COC3(CCN(S(=O)(=O)c4cnc5c(c4)OCCN5)CC3)C2)c1 [Compound 500, 3-((S)-3-((R)-8-(3,4-dihydro-2H-pyrido[3,2-b][1,4]oxazin-7-ylsulfonyl)-1-oxa-8-azaspiro[4.5]decan-3-ylamino)-2-hydroxypropoxy)-N-methylbenzenesulfonamide]
18.9	CNS(=O)(=O)c1cccc(OC[C@@H](O)CN[C@H]2COC3(CCN(S(=O)(=O)c4cnc5cn[nH]c5c4)CC3)C2)c1 [Compound 502, 3-((S)-3-((R)-8-(1H-pyrazolo[4,3-b]pyridin-6-ylsulfonyl)-1-oxa-8-azaspiro[4.5]decan-3-ylamino)-2-hydroxypropoxy)-N-methylbenzenesulfonamide]
28.9	CNS(=O)(=O)c1cccc(OC[C@@H](O)CN[C@H]2COC3(CCN(S(=O)(=O)c4ccc5[nH]cnc5c4)CC3)C2)c1 [Compound 503, 3-((S)-3-((R)-8-(1H-benzo[d]imidazol-5-ylsulfonyl)-1-oxa-8-azaspiro[4.5]decan-3-ylamino)-2-hydroxypropoxy)-N-methylbenzenesulfonamide]
217	CNS(=O)(=O)c1cccc(OC[C@@H](O)CN[C@H]2COC3(CCN(S(=O)(=O)c4cnc5c(c4)CCO5)CC3)C2)c1 [Compound 504, 3-((S)-3-((R)-8-(2,3-dihydrofuro[2,3-b]pyridin-5-ylsulfonyl)-1-oxa-8-azaspiro[4.5]decan-3-ylamino)-2-hydroxypropoxy)-N-methylbenzenesulfonamide]
11.9	CNS(=O)(=O)c1cccc(OC[C@@H](O)CN[C@H]2COC3(CCN(S(=O)(=O)c4cnc5[nH]ccc5c4)CC3)C2)c1 [Compound 506, 3-((S)-3-((R)-8-(1H-pyrrolo[2,3-b]pyridin-5-ylsulfonyl)-1-oxa-8-azaspiro[4.5]decan-3-ylamino)-2-hydroxypropoxy)-N-methylbenzenesulfonamide]

Second part, the compound before the results:

Structure (SMILES)	IC50 [nM]
CNS(=O)(=O)c1cccc(OC[C@@H](O)CN[C@H]2COC3(CCN(S(=O)(=O)c4cnc5nc(N)ccc5c4)CC3)C2)c1 [Compound 489, 3-((S)-3-((R)-8-(7-amino-1,8-naphthyridin-3-ylsulfonyl)-1-oxa-8-azaspiro[4.5]decan-3-ylamino)-2-hydroxypropoxy)-N-methylbenzenesulfonamide]	33.9
CCn1cc(S(=O)(=O)N2CCC3(CC2)C[C@@H](NC[C@H](O)COc2cccc(S(=O)(=O)NC)c2)CO3)c(=O)c2ccccc21 [Compound 492, 3-((S)-3-((R)-8-(1-ethyl-4-oxo-1,4-dihydroquinolin-3-ylsulfonyl)-1-oxa-8-azaspiro[4.5]decan-3-ylamino)-2-hydroxypropoxy)-N-methylbenzenesulfonamide]	33
CNS(=O)(=O)c1cccc(OC[C@@H](O)CN[C@H]2COC3(CCN(S(=O)(=O)c4cn(C)c5ccccc5c4=O)CC3)C2)c1 [Compound 494, 3-((S)-2-hydroxy-3-((R)-8-(1-methyl-4-oxo-1,4-dihydroquinolin-3-ylsulfonyl)-1-oxa-8-azaspiro[4.5]decan-3-ylamino)propoxy)-N-methylbenzenesulfonamide]	62.4
CNS(=O)(=O)c1cccc(OC[C@@H](O)CN[C@H]2COC3(CCN(S(=O)(=O)c4ccc[n+]([O-])c4)CC3)C2)c1 [Compound 496, 3-((R)-3-((S)-2-hydroxy-3-(3-(N-methylsulfamoyl)phenoxy)propylamino)-1-oxa-8-azaspiro[4.5]decan-8-ylsulfonyl)pyridine 1-oxide]	541
CNS(=O)(=O)c1cccc(OC[C@@H](O)CN[C@H]2COC3(CCN(S(=O)(=O)c4ccc5c(c4)C(=O)C(=O)N5)CC3)C2)c1 [Compound 498, 3-((S)-3-((R)-8-(2,3-dioxoindolin-5-ylsulfonyl)-1-oxa-8-azaspiro[4.5]decan-3-ylamino)-2-hydroxypropoxy)-N-methylbenzenesulfonamide]	117
CNS(=O)(=O)c1cccc(OC[C@@H](O)CN[C@H]2COC3(CCN(S(=O)(=O)c4ccc5[nH]c(=O)[nH]c5c4)CC3)C2)c1 [Compound 499, 3-((S)-2-hydroxy-3-((R)-8-(2-oxo-2,3-dihydro-1H-benzo[d]imidazol-5-ylsulfonyl)-1-oxa-8-azaspiro[4.5]decan-3-ylamino)propoxy)-N-methylbenzenesulfonamide]	73
CNS(=O)(=O)c1cccc(OC[C@@H](O)CN[C@H]2COC3(CCN(S(=O)(=O)c4ccc5[nH]c(C)nc5c4)CC3)C2)c1 [Compound 501, 3-((S)-2-hydroxy-3-((R)-8-(2-methyl-1H-benzo[d]imidazol-5-ylsulfonyl)-1-oxa-8-azaspiro[4.5]decan-3-ylamino)propoxy)-N-methylbenzenesulfonamide]	22.9
CNS(=O)(=O)c1cccc(OC[C@@H](O)CN[C@H]2COC3(CCN(S(=O)(=O)c4c[nH]c5ncccc45)CC3)C2)c1 [Compound 507, 3-((S)-3-((R)-8-(1H-pyrrolo[2,3-b]pyridin-3-ylsulfonyl)-1-oxa-8-azaspiro[4.5]decan-3-ylamino)-2-hydroxypropoxy)-N-methylbenzenesulfonamide]	58.8
CNS(=O)(=O)c1cccc(OC[C@@H](O)CN[C@H]2COC3(CCN(S(=O)(=O)c4ccc5[nH]ncc5c4OC)CC3)C2)c1 [Compound 508, 3-((S)-2-hydroxy-3-((R)-8-(4-methoxy-1H-indazol-5-ylsulfonyl)-1-oxa-8-azaspiro[4.5]decan-3-ylamino)propoxy)-N-methylbenzenesulfonamide]	211
CNS(=O)(=O)c1cccc(OC[C@@H](O)CN[C@H]2COC3(CCN(S(=O)(=O)c4cnc5[nH]cc(C(F)(F)F)c5c4)CC3)C2)c1 [Compound 509, 3-((S)-2-hydroxy-3-((R)-8-(3-(trifluoromethyl)-1H-pyrrolo[2,3-b]pyridin-5-ylsulfonyl)-1-oxa-8-azaspiro[4.5]decan-3-ylamino)propoxy)-N-methylbenzenesulfonamide]	6.95
